Measurements reported in patent US20210395239A1 (Hoffmann-La Roche Inc., priority 2018, published 2021).

Molecular target: T1, human TLR7 (Homo sapiens, UniProt Q9NYK1)
T1 construct: host or cells: HEK293 (HEK-Blue hTLR7)
T1 sequence (Q9NYK1 27-1049): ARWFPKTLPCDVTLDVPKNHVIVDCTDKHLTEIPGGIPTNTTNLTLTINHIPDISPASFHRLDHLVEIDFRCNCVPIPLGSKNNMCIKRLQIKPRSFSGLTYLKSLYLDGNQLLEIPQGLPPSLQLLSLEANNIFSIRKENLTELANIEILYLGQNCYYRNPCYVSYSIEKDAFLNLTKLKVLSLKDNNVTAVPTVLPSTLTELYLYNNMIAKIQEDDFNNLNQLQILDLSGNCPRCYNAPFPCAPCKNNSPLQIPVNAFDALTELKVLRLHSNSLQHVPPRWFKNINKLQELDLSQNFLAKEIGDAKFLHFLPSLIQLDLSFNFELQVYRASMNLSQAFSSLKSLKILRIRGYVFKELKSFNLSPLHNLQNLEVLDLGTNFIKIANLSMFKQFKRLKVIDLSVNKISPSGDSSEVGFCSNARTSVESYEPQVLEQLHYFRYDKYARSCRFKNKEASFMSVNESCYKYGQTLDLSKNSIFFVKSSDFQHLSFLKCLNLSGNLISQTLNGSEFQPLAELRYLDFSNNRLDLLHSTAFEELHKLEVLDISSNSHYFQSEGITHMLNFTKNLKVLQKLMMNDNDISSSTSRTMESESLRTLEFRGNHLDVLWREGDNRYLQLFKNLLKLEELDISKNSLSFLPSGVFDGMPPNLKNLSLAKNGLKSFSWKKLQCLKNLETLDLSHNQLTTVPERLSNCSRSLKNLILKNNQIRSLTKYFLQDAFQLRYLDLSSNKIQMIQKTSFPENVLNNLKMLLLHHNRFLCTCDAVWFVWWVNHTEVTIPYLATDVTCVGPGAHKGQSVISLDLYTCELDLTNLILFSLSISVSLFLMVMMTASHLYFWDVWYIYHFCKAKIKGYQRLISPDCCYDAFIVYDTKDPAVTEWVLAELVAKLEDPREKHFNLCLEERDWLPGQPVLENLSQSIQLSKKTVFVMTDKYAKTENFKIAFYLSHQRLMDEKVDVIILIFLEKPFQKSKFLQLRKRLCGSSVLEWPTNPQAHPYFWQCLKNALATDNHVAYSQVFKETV
Test: HEK293-Blue-hTLR-7 cells assay (SEAP reporter, R848 stimulation)
Assay type: cell-based
Settings: HEK293-Blue-hTLR7 cells, R848, 20 hrs; read-out: HEK/hTLR7 IC50
How it was run: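 HEK293-Blue-hTLR7 cells (NF-κB/AP-1-driven SEAP reporter) were stimulated with R848 alongside serially diluted compound at 1% final DMSO for 20 h at 37 °C. Supernatant SEAP was then developed with QUANTI-Blue for 2 h at 37 °C and absorbance read at 620–655 nm; antagonism is measured as reduced reporter signal.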

Compound | IC50
[2H]c1ccc2c(N3C[C@H](CN4CCN(c5nc(C)cc(N6C[C@@H](N)[C@H](OC)C6)n5)CC4)O[C@H](C)C3)ccc(C#N)c2n1 [Example 144, 5-[(2S,6R)-2-[[4-[4-[(3R,4R)-3-amino-4-methoxy-pyrrolidin-1-yl]-6-methyl-pyrimidin-2-yl]piperazin-1-yl]methyl]-6-methyl-morpholin-4-yl]-2-deuterio-quinoline-8-carbonitrile] | 0.011 µM
[2H]c1ccc2c(N3C[C@H](CN4CC(c5cnc(N6CC(C)(N)C6)cc5C)C4)O[C@H](C)C3)ccc(C#N)c2n1 [Example 145, 5-[(2S,6R)-2-[[3-[6-(3-amino-3-methyl-azetidin-1-yl)-4-methyl-3-pyridyl]azetidin-1-yl]methyl]-6-methyl-morpholin-4-yl]-2-deuterio-quinoline-8-carbonitrile] | 0.014 µM
[2H]c1ccc2c(N3C[C@H](CN4CC(c5cnc(N6C[C@@H](N)[C@H](OC)C6)cc5C)C4)O[C@H](C)C3)ccc(C#N)c2n1 [Example 146, 5-[(2S,6R)-2-[[3-[6-[(3R,4R)-3-amino-4-methoxy-pyrrolidin-1-yl]-4-methyl-3-pyridyl]azetidin-1-yl]methyl]-6-methyl-morpholin-4-yl]-2-deuterio-quinoline-8-carbonitrile] | 0.013 µM
[2H]c1ccc2c(N3C[C@H](CN4CCN(c5ccc(N6CC(C)(N)C6)c(C)n5)CC4)O[C@H](C)C3)ccc(C#N)c2n1 [Example 147, 5-[(2S,6R)-2-[[4-[5-(3-amino-3-methyl-azetidin-1-yl)-6-methyl-2-pyridyl]piperazin-1-yl]methyl]-6-methyl-morpholin-4-yl]-2-deuterio-quinoline-8-carbonitrile] | 0.053 µM
Cc1cc(N2CC(C)(N)C2)cnc1N1CCN(C[C@H]2CN(c3ccc(C#N)n4ncc(F)c34)C[C@@H](C)O2)CC1 [Example 148, 4-[(2S,6R)-2-[[4-[5-(3-amino-3-methyl-azetidin-1-yl)-3-methyl-2-pyridyl]piperazin-1-yl]methyl]-6-methyl-morpholin-4-yl]-3-fluoro-pyrazolo[1,5-a]pyridine-7-carbonitrile] | 0.056 µM
[2H]c1ccc2c(N3C[C@H](CN4CC(c5ccc(N6C[C@@H](N)[C@H](OC)C6)nc5)C4)O[C@H](C)C3)ccc(C#N)c2n1 [Example 149, 5-[(2S,6R)-2-[[3-[6-[(3R,4R)-3-amino-4-methoxy-pyrrolidin-1-yl]-3-pyridyl]azetidin-1-yl]methyl]-6-methyl-morpholin-4-yl]-2-deuterio-quinoline-8-carbonitrile] | 0.016 µM
[2H]c1ccc2c(N3C[C@H](CN4CCN(c5ccc(N6C[C@H](N)[C@@H](F)C6)nc5)CC4)O[C@H](C)C3)ccc(C#N)c2n1 [Example 150, 5-[(2S,6R)-2-[[4-[6-[(3S,4S)-3-amino-4-fluoro-pyrrolidin-1-yl]-3-pyridyl]piperazin-1-yl]methyl]-6-methyl-morpholin-4-yl]-2-deuterio-quinoline-8-carbonitrile] | 0.035 µM
[2H]c1ccc2c(N3C[C@H](CN4CCN(c5ccc(N6C[C@@H]7C[C@H]6CN7)nc5)CC4)O[C@H](C)C3)ccc(C#N)c2n1 [Example 151, 2-deuterio-5-[(2S,6R)-2-[[4-[6-[(1S,4S)-2,5-diazabicyclo[2.2.1]heptan-2-yl]-3-pyridyl]piperazin-1-yl]methyl]-6-methyl-morpholin-4-yl]quinoline-8-carbonitrile] | 0.035 µM
[2H]c1ccc2c(N3C[C@H](CN4CCN(c5ccc(N6CC7(CNCCO7)C6)nc5)CC4)O[C@H](C)C3)ccc(C#N)c2n1 [Example 152, 2-deuterio-5-[(2R,6S)-2-methyl-6-[[4-[6-(5-oxa-2,8-diazaspiro[3.5]nonan-2-yl)-3-pyridyl]piperazin-1-yl]methyl]morpholin-4-yl]quinoline-8-carbonitrile] | 0.015 µM
[2H]c1ccc2c(N3C[C@H](CN4CCN(c5ccc(N6C[C@H]7C[C@@H]6CN7)nc5)CC4)O[C@H](C)C3)ccc(C#N)c2n1 [Example 153, 2-deuterio-5-[(2S,6R)-2-[[4-[6-[(1R,4R)-2,5-diazabicyclo[2.2.1]heptan-2-yl]-3-pyridyl]piperazin-1-yl]methyl]-6-methyl-morpholin-4-yl]quinoline-8-carbonitrile] | 0.032 µM
C[C@@H]1CN(c2ccc(C#N)n3ncc(F)c23)C[C@H](CN2CCN(c3ccc(N4CC(C)(N)C4)nc3)CC2)O1 [Example 154, 4-[(2S,6R)-2-[[4-[6-(3-amino-3-methyl-azetidin-1-yl)-3-pyridyl]piperazin-1-yl]methyl]-6-methyl-morpholin-4-yl]-3-fluoro-pyrazolo[1,5-a]pyridine-7-carbonitrile] | 0.032 µM
[2H]c1ccc2c(N3C[C@H](CN4CCN(c5cccc(N6CC(C)(N)C6)n5)CC4)O[C@H](C)C3)ccc(C#N)c2n1 [Example 155, 5-[(2S,6R)-2-[[4-[6-(3-amino-3-methyl-azetidin-1-yl)-2-pyridyl]piperazin-1-yl]methyl]-6-methyl-morpholin-4-yl]-2-deuterio-quinoline-8-carbonitrile] | 0.018 µM
[2H]c1ccc2c(N3C[C@H](CN4CC(O)(c5ccc(N6CC(C)(N)C6)cc5)C4)O[C@H](C)C3)ccc(C#N)c2n1 [Example 156, 5-[(2S,6R)-2-[[3-[4-(3-amino-3-methyl-azetidin-1-yl)phenyl]-3-hydroxy-azetidin-1-yl]methyl]-6-methyl-morpholin-4-yl]-2-deuterio-quinoline-8-carbonitrile] | 0.021 µM
C[C@@H]1CN(c2ccc(C#N)n3nccc23)C[C@H](CN2CC(c3ccc(N4CC(C)(N)C4)nc3)C2)O1 [Example 157, 4-[(2S,6R)-2-[[3-[6-(3-amino-3-methyl-azetidin-1-yl)-3-pyridyl]azetidin-1-yl]methyl]-6-methyl-morpholin-4-yl]pyrazolo[1,5-a]pyridine-7-carbonitrile] | 0.008 µM
C[C@@H]1CN(c2ccc(C#N)n3ncc(F)c23)C[C@H](CN2CC(c3ccc(N4CC(C)(N)C4)nc3)C2)O1 [Example 158, 4-[(2S,6R)-2-[[3-[6-(3-amino-3-methyl-azetidin-1-yl)-3-pyridyl]azetidin-1-yl]methyl]-6-methyl-morpholin-4-yl]-3-fluoro-pyrazolo[1,5-a]pyridine-7-carbonitrile] | 0.003 µM
[2H]c1ccc2c(N3C[C@H](CN4CC(c5cccc(N6CC(C)(N)C6)n5)C4)O[C@H](C)C3)ccc(C#N)c2n1 [Example 159, 5-[(2S,6R)-2-[[3-[6-(3-amino-3-methyl-azetidin-1-yl)-2-pyridyl]azetidin-1-yl]methyl]-6-methyl-morpholin-4-yl]-2-deuterio-quinoline-8-carbonitrile] | 0.03 µM
C[C@@H]1CN(c2ccc(C#N)n3ncc(F)c23)C[C@H](CN2CC(c3ccc(N4CC(C)(N)C4)cc3)C2)O1 [Example 160, 4-[(2S,6R)-2-[[3-[4-(3-amino-3-methyl-azetidin-1-yl)phenyl]azetidin-1-yl]methyl]-6-methyl-morpholin-4-yl]-3-fluoro-pyrazolo[1,5-a]pyridine-7-carbonitrile] | 0.011 µM
[2H]c1ccc2c(N3C[C@H](CN4CCN(c5ccc(N6CC7(CN(C)C7)C6)nc5)CC4)O[C@H](C)C3)ccc(C#N)c2n1 [Example 161, 2-deuterio-5-[(2R,6S)-2-methyl-6-[[4-[6-(6-methyl-2,6-diazaspiro[3.3]heptan-2-yl)-3-pyridyl]piperazin-1-yl]methyl]morpholin-4-yl]quinoline-8-carbonitrile] | 0.008 µM
[2H]c1ccc2c(N3C[C@H](CN4CCN(c5ccc(N[C@H]6CNC[C@H]6F)nc5)CC4)O[C@H](C)C3)ccc(C#N)c2n1 [Example 162, 2-deuterio-5-[(2S,6R)-2-[[4-[6-[[(3S,4R)-4-fluoropyrrolidin-3-yl]amino]-3-pyridyl]piperazin-1-yl]methyl]-6-methyl-morpholin-4-yl]quinoline-8-carbonitrile] | 0.011 µM
C[C@@H]1CN(c2ccc(C#N)n3nccc23)C[C@H](CN2CC(c3ccc(N4CC(C)(N)C4)cc3)C2)O1 [Example 163, 4-[(2S,6R)-2-[[3-[4-(3-amino-3-methyl-azetidin-1-yl)phenyl]azetidin-1-yl]methyl]-6-methyl-morpholin-4-yl]pyrazolo[1,5-a]pyridine-7-carbonitrile] | 0.022 µM
